Data set [1] concerns the target T1, CYP3A4 (Homo sapiens, UniProt P08684). The data set is described as follows: H2O2-dependent heme depletion assay. Further details: Codon-optimized full-length and Δ3–22 human CYP3A4 were produced as reported previously [45] and used for assays and crystallization, respectively; made in house. The following applies: for % decay (heme destroyed at the end of the reaction): 1.6 μM CYP3A4, 16 μM inhibitor, 10 mM H2O2, 120 min, relative to ligand-free CYP3A4 (100% decay); for heme preserved: 10 mM H2O2, end of the reaction; for higher heme loss: weaker ligands compared with the strongest binders/inhibitors.

For data set [2], the target named is T1, CYP3A4. The data set is described as follows: Inhibitory potency for BFC O-debenzylation activity in a soluble reconstituted system. Type of data set: biochemical. Set-up: The full-length CYP3A4 and rat cytochrome P450 reductase (40 and 60 μM, respectively) were preincubated; made in house. The following applies: BFC debenzylase activity, 0.1 μM CYP3A4 with cytochrome P450 reductase, no NADPH preincubation.

The target in data set [3] is T1, CYP3A4. The data set is described as follows: Thermal denaturation (melting temperature of ligand-bound CYP3A4). Type of data set: binding. Set-up: Codon-optimized full-length and Δ3–22 human CYP3A4 were produced as reported previously [45] and used for assays and crystallization, respectively; made in house. Conditions: 1 μM protein, 20 μM ligand; for ΔTm at 15 min, 20 μM: human, purified CYP3A4 protein, pH 7.4, ligand-dependent change in melting temperature; for ΔTm: ligand-dependent change in melting temperature. As for the experimental part:
Thermal Denaturation—Thermal denaturation curves were recorded in 0.1 M phosphate buffer, pH 7.4, in a Cary 300 spectrophotometer. Protein (1 μM) was mixed with a ligand (20 μM) and incubated for 15 min at 23 °C. Melting curves were recorded at 260 nm using a 0.2 °C measurement step, 0.9 °C/min ramp rate, and a 50–75 °C temperature range. A denaturation midpoint (melting temperature; Tm) was determined from non-linear fittings to the melting curve as described earlier.

For data set [4], the target named is T1, CYP3A4. The data set is described as follows: Stopped-flow kinetics of ligand binding. Further details: Codon-optimized full-length and Δ3–22 human CYP3A4 were produced as reported previously [45] and used for assays and crystallization, respectively; made in house. The following applies: for k fast: rate constant for the fast phase of the ligand binding reaction; for percentage of the fast phase: value in brackets of k fast column. The procedure:
(§1) Kinetics of Ligand Binding and Heme Reduction—Kinetics of ligand binding to CYP3A4 and its reduction with sodium dithionite were measured at 426 and 443 nm, respectively, in a SX.18MV stopped flow apparatus (Applied Photophysics, UK), as described earlier.

For data set [5], the target named is T1, CYP3A4. Briefly: Spectral binding titrations (equilibrium ligand binding, type II spectral change). Further details: Codon-optimized full-length and Δ3–22 human CYP3A4 were produced as reported previously [45] and used for assays and crystallization, respectively; made in house. Conditions: for Kd: WT CYP3A4, 2 μM protein, pH 7.4, quadratic fits to titration plots, read-out: Ks (spectral dissociation constant); for λmax (nm) Ferric: ferric inhibitor-bound CYP3A4, Soret band; for λmax (nm) ferrous: ferrous inhibitor-bound CYP3A4, Soret band; for ΔAmax: maximal absorbance change (peak/trough in difference spectrum) relative to that induced by ritonavir; for A421/417: ratio between the absorbance maxima of ferric ligand-bound and ligand-free CYP3A4.

For data set [6], the target named is T1, CYP3A4. The data set is described as follows: Kinetics of heme reduction of inhibitor-bound CYP3A4 with sodium dithionite. The following applies: for portion of the protein reduced: k ET, heme reduction by sodium dithionite; for k ET: rate constant for reduction of inhibitor-bound CYP3A4 with sodium dithionite. Further details: Codon-optimized full-length and Δ3–22 human CYP3A4 were produced as reported previously [45] and used for assays and crystallization, respectively; made in house.
From the text: Ritonavir-like molecules inhibit CYP3A4 not only via heme ligation and decrease in the heme redox potential but also by blocking the active site and preventing substrates from accessing the catalytic centre. We usually evaluate the heme accessibility by measuring the rate and percentage of anaerobic heme reduction by sodium dithionite, an artificial electron donor (k^ET in Table 1). […] Therefore, we utilized another method, heme bleaching with hydrogen peroxide, to probe the accessibility of the cofactor. H2O2 is a small oxidizing agent that easily penetrates the protein interior and destroys the heme without altering the P450 structure. Due to the complex, multiphasic nature of heme decay kinetics, it was more convenient to compare the percentage of heme destroyed at the end of the reaction.
as §1

Data set [7] concerns the target T2, K421A/K424A CYP3A4 (Homo sapiens, UniProt P08684, K421A/K424A).
T2 construct: made in house
Briefly: Spectral binding titrations with the K421A/K424A mutant. The following applies: read-out: Ks (dissociation constant).

Consider twelve molecules from paper PMC7830545, “Rational Design of CYP3A4 Inhibitors: A One-Atom Linker Elongation in Ritonavir-Like Compounds Leads to a Marked Improvement in the Binding Strength” (International Journal of Molecular Sciences, 2021).

T1 sequence (P08684 whole entry): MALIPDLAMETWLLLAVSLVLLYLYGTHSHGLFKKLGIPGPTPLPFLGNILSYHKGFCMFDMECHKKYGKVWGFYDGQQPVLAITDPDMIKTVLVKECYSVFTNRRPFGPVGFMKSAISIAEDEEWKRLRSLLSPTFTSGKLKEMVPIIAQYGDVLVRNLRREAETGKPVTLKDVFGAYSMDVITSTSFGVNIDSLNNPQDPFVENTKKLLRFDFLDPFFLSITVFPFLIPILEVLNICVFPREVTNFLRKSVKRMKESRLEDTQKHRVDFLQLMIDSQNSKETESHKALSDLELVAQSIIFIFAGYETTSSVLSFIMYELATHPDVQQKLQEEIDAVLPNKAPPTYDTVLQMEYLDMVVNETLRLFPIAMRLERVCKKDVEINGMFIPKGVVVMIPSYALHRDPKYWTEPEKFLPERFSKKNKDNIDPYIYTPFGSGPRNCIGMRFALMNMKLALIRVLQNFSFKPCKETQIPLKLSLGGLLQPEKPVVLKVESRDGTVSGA
T2 sequence (P08684 with tags, fused parts or gaps K421A/K424A): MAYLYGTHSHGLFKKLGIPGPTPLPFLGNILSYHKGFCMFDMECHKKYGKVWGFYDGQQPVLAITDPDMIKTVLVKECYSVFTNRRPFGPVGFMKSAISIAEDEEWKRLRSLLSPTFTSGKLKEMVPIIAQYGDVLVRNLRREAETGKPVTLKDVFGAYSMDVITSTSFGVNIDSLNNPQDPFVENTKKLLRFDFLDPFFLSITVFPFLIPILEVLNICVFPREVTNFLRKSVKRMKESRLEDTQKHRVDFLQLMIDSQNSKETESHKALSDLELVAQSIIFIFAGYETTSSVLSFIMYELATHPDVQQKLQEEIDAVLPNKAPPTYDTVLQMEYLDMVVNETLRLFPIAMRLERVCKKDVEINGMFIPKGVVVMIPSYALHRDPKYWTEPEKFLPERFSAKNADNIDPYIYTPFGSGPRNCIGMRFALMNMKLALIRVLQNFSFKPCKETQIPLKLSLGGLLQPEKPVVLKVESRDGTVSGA

A word on the IC50: it is the concentration needed to halve the response being measured. A low value points to greater potency. A word on the ΔTm: it is the shift of the melting midpoint relative to a reference. For the molecule `CC(C)(C)OC(=O)NC(CSC(Cc1ccccc1)C(=O)NCCCc1cccnc1)Cc1ccccc1` (centres unmarked) [Compound 3a], in data set [1], the “% decay (heme destroyed at the end of the reaction)” value (shortened to “% decay”) was found to be 18% and the heme preserved is on record as more than 80%. In addition, the 50% inhibitory concentration (IC50) in data set [2] is 160 ± 20 nM. Moreover, in data set [3], the ΔTm at 15 min, 20 μM is 8.1 °C. Moreover, in data set [4], the k fast was determined as 12.5 s⁻¹ and the “percentage of the fast phase” value is on record as 36%.
On to `CC(C)(C)OC(=O)NC(CSC(Cc1ccccc1)C(=O)NCCCc1cccnc1)Cc1ccccc1` (centres unmarked) [Compound 3b], for which, in data set [5], the Kd amounted to 29 ± 4 nM, the “λmax (nm) Ferric” value turned out to be 421 nm, the “λmax (nm) ferrous” value is reported as 443 nm and the ΔAmax came to 111%. Further, the A421/417 in data set [5] is recorded as 1.08. Moreover, in data set [6], the “portion of the protein reduced” value was 87% and the “k ET” value came out at 0.014 s⁻¹. For the same molecule, in data set [1], the “% decay” value is given as 26% and the higher heme loss was 4–16%. Moreover, the IC50 in data set [2] was determined as 300 ± 20 nM. Further, the ΔTm in data set [3] stood at 5.3 °C.
With `CC(C)(C)OC(=O)N[C@H](CS[C@@H](Cc1ccccc1)C(=O)NCCCc1cccnc1)Cc1ccccc1` [Compound 3c], in data set [6], the “portion of the protein reduced” value is 77% and the “k ET” value is 0.012 s⁻¹. This molecule yielded a concentration for half-maximal inhibition (IC50) in data set [2] of 310 ± 40 nM. The thermal shift (ΔTm) at 15 min, 20 μM in data set [3] is 5.8 °C.
In the case of `CC(C)(C)OC(=O)N[C@@H](CS[C@H](Cc1ccccc1)C(=O)NCCCc1cccnc1)Cc1ccccc1` [Compound 3d], in data set [6], the “portion of the protein reduced” value worked out at 95% and the “k ET” value was 0.013 s⁻¹. In addition, the “% decay” value in data set [1] amounted to 22%. Besides, in data set [2], the IC50 worked out at 210 ± 20 nM. In data set [3], the ΔTm at 15 min, 20 μM came out at 5.6 °C. In addition, in data set [4], the k fast was 12.0 s⁻¹ and the “percentage of the fast phase” value came out at 38%. Moreover, the Kd in data set [7] amounted to 19 nM.
As to `CC(C)(C)OC(=O)N[C@H](CS[C@H](Cc1ccccc1)C(=O)NCCCc1cccnc1)Cc1c[nH]c2ccccc12` [Compound 3e], in data set [5], the Kd is 19 ± 2 nM, the “λmax (nm) Ferric” value is given as 422 nm, the “λmax (nm) ferrous” value stood at 444 nm and the ΔAmax was 125%. The A421/417 in data set [5] was determined as 1.11. For the same molecule, the “fold decrease in Ks” value in data set [5] (relative to shorter pyridyl-ethyl counterpart 7b (series IV)) is listed as 4 fold. In addition, in data set [6], the “portion of the protein reduced” value amounted to 85% and the “k ET” value stood at 0.020 s⁻¹. Besides, in data set [1], the “% decay” value was 18% and the heme preserved is listed as more than 80%. For the same molecule, the IC50 in data set [2] came out at 150 ± 30 nM. Also, in data set [3], the ΔTm at 15 min, 20 μM came out at 7.8 °C. In data set [4], the k fast was 20.1 s⁻¹ and the “percentage of the fast phase” value amounted to 24%.
Consider `CC(C)(C)OC(=O)NC(CSC(Cc1ccccc1)C(=O)NCCCc1cccnc1)Cc1cccc2ccccc12` (centres unmarked) [Compound 3f], for which, in data set [6], the “portion of the protein reduced” value came out at 94% and the “k ET” value is 0.011 s⁻¹. In addition, in data set [1], the “% decay” value was 15% and the heme preserved is reported as more than 80%. In data set [2], this molecule registered a 50% inhibitory concentration (IC50) of 160 ± 30 nM. For the same molecule, the ΔTm at 15 min, 20 μM in data set [3] was found to be 7.9 °C.
Consider `CC(C)(C)OC(=O)NC(CSC(Cc1ccccc1)C(=O)NCCCc1cccnc1)Cc1cccc2ccccc12` (centres unmarked) [Compound 3g], for which, in data set [5], the Kd stood at 24 ± 6 nM, the “λmax (nm) Ferric” value was 422 nm, the “λmax (nm) ferrous” value came out at 444 nm and the ΔAmax is reported as 111%. Also, the A421/417 in data set [5] amounted to 1.09. Besides, in data set [6], the “portion of the protein reduced” value was found to be 75% and the “k ET” value is 0.011 s⁻¹. Besides, in data set [1], the “% decay” value is given as 22% and the higher heme loss is on record as 4–16%. The molecule also displayed an IC50 in data set [2] of 300 ± 60 nM. Further, the ΔTm in data set [3] was 4.9 °C. In data set [4], the k fast came out at 10.8 s⁻¹ and the “percentage of the fast phase” value was determined as 32%.
For the molecule `CC(C)(C)OC(=O)N[C@H](CS[C@@H](Cc1ccccc1)C(=O)NCCCc1cccnc1)Cc1cccc2ccccc12` [Compound 3h], in data set [5], the Kd turned out to be 7 ± 1 nM, the “λmax (nm) Ferric” value turned out to be 422 nm, the “λmax (nm) ferrous” value amounted to 444 nm and the ΔAmax is reported as 112%. Also, in data set [5], the A421/417 turned out to be 1.09. For the same molecule, in data set [6], the “portion of the protein reduced” value amounted to 72% and the “k ET” value worked out at 0.017 s⁻¹. In addition, in data set [1], the “% decay” value is 12% and the heme preserved is more than 80%. The same molecule returned a half-inhibitory concentration (IC50) in data set [2] of 90 ± 10 nM. In data set [4], the k fast was determined as 16.1 s⁻¹ and the “percentage of the fast phase” value was 24%.
With `CC(C)(C)OC(=O)N[C@@H](CS[C@H](Cc1ccccc1)C(=O)NCCCc1cccnc1)Cc1cccc2ccccc12` [Compound 3i], in data set [5], the Kd is 18 ± 3 nM, the “λmax (nm) Ferric” value was found to be 422 nm, the “λmax (nm) ferrous” value is 444 nm and the ΔAmax came to 114%. The A421/417 in data set [5] was found to be 1.10. For the same molecule, in data set [6], the “portion of the protein reduced” value stood at 97% and the “k ET” value is 0.021 s⁻¹. For the same molecule, the “% decay” value in data set [1] is on record as 23%. The molecule also had a 50% inhibitory concentration (IC50) in data set [2] of 150 ± 20 nM. In addition, the ΔTm at 15 min, 20 μM in data set [3] came out at 5.5 °C. For the same molecule, in data set [4], the k fast came to 12.3 s⁻¹ and the “percentage of the fast phase” value is 24%. Moreover, in data set [7], the Kd was found to be 25 nM.
Take `CC(C)(C)OC(=O)NC(CSCC(Nc1ccccc1)C(=O)NCc1cccnc1)Cc1cccc2ccccc12` (centres unmarked) [Compound 5b, reference compound]: the “% decay” value in data set [1] is recorded as 25%.
For `CC(C)(C)OC(=O)NC(CSC(Cc1ccccc1)C(=O)NCCOCc1cccnc1)Cc1ccccc1` (centres unmarked) [Compound 6], in data set [5], the Kd is 213 ± 9 nM, the “λmax (nm) Ferric” value is given as 422 nm, the “λmax (nm) ferrous” value is given as 443 nm and the ΔAmax came to 113%. Further, in data set [5], the A421/417 is 1.07. In addition, in data set [6], the “portion of the protein reduced” value amounted to 65% and the “k ET” value was determined as 0.017 s⁻¹. In data set [1], the “% decay” value stood at 34% and the higher heme loss is 4–16%. Further, the IC50 in data set [2] is 730 ± 60 nM. The ΔTm at 15 min, 20 μM in data set [3] is less than 3 °C. For the same molecule, in data set [4], the k fast was determined as 9.5 s⁻¹ and the “percentage of the fast phase” value was determined as 29%.
Take `CC(C)(C)OC(=O)NC(CSCC(Nc1ccccc1)C(=O)NCCCc1cccnc1)Cc1ccccc1` (centres unmarked) [Compound 8]: in data set [5], the Kd was 28 ± 4 nM, the “λmax (nm) Ferric” value was found to be 422 nm, the “λmax (nm) ferrous” value was 444 nm and the ΔAmax came to 114%. Besides, the A421/417 in data set [5] worked out at 1.10. For the same molecule, in data set [6], the “portion of the protein reduced” value turned out to be 58% and the “k ET” value came out at 0.018 s⁻¹. In data set [1], the “% decay” value is reported as 22%. This molecule came in with an IC50 in data set [2] of 330 ± 30 nM. Moreover, the thermal shift (ΔTm) at 15 min, 20 μM in data set [3] stood at 5 °C. In data set [4], the k fast is 16.2 s⁻¹ and the “percentage of the fast phase” value was 30%.
